Source: US12054478B2, “Compositions and methods for inhibiting phenyl triazole MLL1-WDR5 protein-protein interaction” (China Pharmaceutical University, priority 2018, dated 2024)
Converted amounts (≈) assume the structure as drawn. Where two headings read alike, the source gives them in different places.

Tests used:
[1] = target: MLL1-WDR5 protein-protein interactions (Homo sapiens, UniProt P61964); assay: Inhibition of MLL1-WDR5 protein-protein interaction; format: binding
[2] = tested on: MV4-11 human acute leukemia monocyte; assay: Anti-proliferation on leukemia cells, MV4-11; format: cell-based; settings: Homo sapiens, MV4-11; MV-411 cells
Description: (§1) Anti-proliferation experiments were conducted with leukemia cells with some of the compounds in the present disclosure.

[3] = tested on: Molm-13 human acute myeloid leukemia cells; assay: Anti-proliferation on leukemia cells, Molm-13; format: cell-based; settings: Homo sapiens; Molm-13 cells
Description: as §1

[4] = tested on: K562 human chronic myeloid leukemia cells; assay: Anti-proliferation on leukemia cells, K562; format: cell-based
Description: Anti-proliferation experiments were conducted with leukemia cells with some of the compounds in the present disclosure. Table 3 listed the results of evaluation of the anti-proliferation activities for some of the compounds from this present disclosure conducted with acute leukemia cells, wherein MV4-11 is human acute leukemia monocyte, Molm-13 is human acute myeloid leukemia cells, and K562 is human chronic myeloid leukemia cells.

female balb/c mice = settings: 80 mg/kg intraperitoneal, 10 consecutive days
Description: In the meantime, subacute toxicity experiments were conducted to evaluate the safety of some of the compounds in the present disclosure in mouse.

Solubility at pH 7.4 = format: physicochemical; settings: aqueous medium at pH 7.4 (water solubility), aqueous buffer
[5] = Table 1, read-out: MLL1-WDR5 PPI inhibition activity
[6] = Table 2, compounds of this present disclosure, read-out: MLL1-WDR5 PP1 inhibition activity
[7] = Table 2, compounds of this present disclosure
[8] = Table 2, biphenyl comparison compounds
[9] = Table 2, biphenyl comparison compounds (Eur. J. Med. Chem. 2016, 124, 480-489), read-out: MLL1-WDR5 PP1 inhibition activity

IC50 [1, 5] [µM]	GI50 [2] [µM]	GI50 [3] [µM]	GI50 [4] [µM]	SMILES	other results
< 0.01	9.5 ± 1	11 ± 2	14.1 ± 1.3	Cc1c(F)c(N)cc(C(=O)Nc2cc(-n3cc(NC(=O)C4CCN(C)CC4)nn3)ccc2N2CCN(C)CC2)c1Cl [Example 14]	
< 0.08	23.2 ± 3.2			Cc1c(F)c(N)cc(C(=O)Nc2cc(-n3cc(NC(=O)OC(C)(C)C)nn3)ccc2N2CCN(C)CC2)c1Cl [Example 12]	
	13.5 ± 1.5	13.5 ± 1.5	13.5 ± 1.5	Cc1c(F)c(N)cc(C(=O)Nc2cc(-n3ccnn3)ccc2N2CCN(C)CC2)c1Cl [Example 11, 5-amino-2-chloro-4-fluoro-3-methyl-N-(2-(4-methylpiperazin-1-group)-5-(1H-1,2,3-triazole-1-group)phenyl) benzamide]	
< 0.01	13.5 ± 1.2	13.5 ± 1.2	13.5 ± 1.2	Cc1c(F)c(N)cc(C(=O)Nc2cc(-n3cc(C(=O)NCCCN)nn3)ccc2N2CCN(C)CC2)c1Cl [Example 10]	
< 0.05	13.7 ± 1.4	16.8 ± 2	13.5 ± 1.2	Cc1c(F)c(N)cc(C(=O)Nc2cc(-n3cc(CCN(C)C)nn3)ccc2N2CCN(C)CC2)c1Cl [Example 19, 5-amino-2-chloro-N-(5-(4-(2-(Dimethylamino)ethyl)-1H-1,2,3-triazol-1-group)-2-(4-methylpiperazin-1-groupgroup)phenyl)-4-fluoro-3-Methyl benzoyl]	
< 0.01	14.3 ± 1.7	18.5 ± 1.9	12.9 ± 0.2	Cc1c(F)c(N)cc(C(=O)Nc2cc(-n3cc(NC(=O)C4CCNCC4)nn3)ccc2N2CCN(C)CC2)c1Cl [Example 15, N-(1-(3-(5-amino-2-chloro-4-fluoro-3-Methylbenzoylamino)-4-(4-methylpiperazingroup)phenyl)-1H-1,2,3-Triazopyridine-4-group) Piperidine-4-formamide]	
< 0.05	11.3 ± 0.7	12.9 ± 0.9	13.5 ± 2.2	Cc1c(F)c(N)cc(C(=O)Nc2cc(-n3cc(C(=O)NCCN4CCOCC4)nn3)ccc2N2CCCN(C)CC2)c1Cl [Example 24, 1-(3-(5-amino-2-chloro-4-fluoro-3-Methylbenzoylamino)-4-(4-methyl-1,4-Diazepane-1-group)phenyl)-N-(2-Morpholineethyl)-1H-1,2,3-triazol-4-formamide]	
< 0.05	10.4 ± 1.1	7.3 ± 0.8	21.3 ± 2.4	Cc1c(F)c(N)cc(C(=O)Nc2cc(-n3cc(NC(=O)CCO)nn3)ccc2N2CCN(C)CC2)c1Cl [Example 17, 5-amino-2-chloro-4-fluoro-N-(5-(4-(3-Hydroxypropionylamino)-1H-1,2,3-triazol-1-group)-2-(4-methylpiperazin-1-group)phenyl)-3-methyl benzoylamino]	
< 0.08	10.1 ± 1.3	9.2 ± 1.4	10.5 ± 2	Cc1c(F)c(N)cc(C(=O)Nc2cc(-n3cc(N)nn3)ccc2N2CCN(C)CC2)c1Cl [Example 13, 5-amino-N-(5-(4-amino-1H-1,2,3-triazole-1-group)-2-(4-methylpiperazin-1-group)phenyl)-2-chloro-4-fluoro-3-Methylbenzamide]	

Continued, compound first:

SMILES	IC50 [1, 5] [µM]	GI50 [2] [µM]	GI50 [3] [µM]	GI50 [4] [µM]	other results
Cc1c(F)c(N)cc(C(=O)Nc2cc(-c3ccc(NC(=O)CCCN)cc3)ccc2N2CCN(C)CC2)c1Cl [DDO-2117, reference compound]					Average body weight changes (female balb/c mice): apparent body weight decrease
Cc1c(F)c(N)cc(C(=O)Nc2cc(-n3cc(NC(=O)C4CCNCC4)nn3)ccc2N2CCN(C)CC2)c1Cl [drawing 18]					IC50 [1, 6]: 0.0123 µM; solubility (Solubility at pH 7.4; [7]): 1240 µg/mL (≈ 2170 µM)
Cc1c(F)c(N)cc(C(=O)Nc2cc(-c3ccc(NC(=O)CCCN)cc3)ccc2N2CCN(C)CC2)c1Cl [drawing 21, reference compound]					solubility (Solubility at pH 7.4; [8]): 110 µg/mL (≈ 199 µM)
Cc1c(F)c(N)cc(C(=O)Nc2cc(-c3ccc(NC(=O)C4CCN(C)CC4)cc3)ccc2N2CCN(C)CC2)c1Cl [reference compound]					solubility (Solubility at pH 7.4; [8]): 54 µg/mL (≈ 91 µM)
Cc1c(F)c(N)cc(C(=O)Nc2cc(-c3ccc(C(=O)N4CCOCC4)cc3)ccc2N2CCN(C)CC2)c1Cl [reference compound]					solubility (Solubility at pH 7.4; [8]): 27 µg/mL (≈ 47.7 µM)
Cc1c(F)c(N)cc(C(=O)Nc2cc(-n3cc(C(=O)NCCCN4CCOCC4)nn3)ccc2N2CCN(C)CC2)c1Cl [Example 7]				12.9 ± 0.4	Average body weight changes (female balb/c mice): slight body weight increase
Cc1c(F)c(N)cc(C(=O)Nc2cc(-c3ccc(C(=O)N(C)C)cc3)ccc2N2CCN(C)CC2)c1Cl [reference compound]					solubility (Solubility at pH 7.4; [8]): 21 µg/mL (≈ 40.1 µM)
COC(=O)c1ccc(-c2ccc(N3CCN(C)CC3)c(NC(=O)c3cc(N)c(F)c(C)c3Cl)c2)cc1 [reference compound]					solubility (Solubility at pH 7.4; [8]): 1.9 µg/mL (≈ 3.72 µM)
COC(=O)c1cn(-c2ccc(N3CCN(C)CC3)c(NC(=O)c3cc(N)c(F)c(C)c3Cl)c2)nn1 [drawing 6]					solubility (Solubility at pH 7.4; [7]): 20 µg/mL (≈ 39.8 µM)
Cc1c(F)c(N)cc(C(=O)Nc2cc(-n3cc(C(=O)NCCN4CCOCC4)nn3)ccc2N2CCN(C)C(C)C2)c1Cl (stereo not drawn) [Example 25]	< 0.05	10.9 ± 0.9	8.5 ± 0.7	11.3 ± 0.7	
Cc1c(F)c(N)cc(C(=O)Nc2cc(-n3cc(NC(=O)C4CCN(C)CC4)nn3)ccc2N2CCN(C)CC2)c1Cl [drawing 16]					IC50 [1, 6]: 0.006 µM; solubility (Solubility at pH 7.4; [7]): 630 µg/mL (≈ 1080 µM)
Cc1c(F)c(N)cc(C(=O)Nc2cc(-n3cc(C(=O)NCCN4CCOCC4)nn3)ccc2N2CCN(C)CC2)c1Cl [Example 9]				35.8 ± 2.7	
CCOc1cn(-c2ccc(N3CCN(C)CC3)c(NC(=O)c3cc(N)c(F)c(C)c3Cl)c2F)nn1 [Example 20]		8.6 ± 0.6	10.1 ± 1.3	10.5 ± 2	
Cc1c(F)c(N)cc(C(=O)Nc2cc(-c3ccccc3)ccc2N2CCN(C)CC2)c1Cl [reference compound]					IC50 [1, 9]: 0.0479 µM; solubility (Solubility at pH 7.4; [8]): 3.1 µg/mL (≈ 6.84 µM)
Cc1c(F)c(N)cc(C(=O)Nc2cc(-c3ccc(N)cc3)ccc2N2CCN(C)CC2)c1Cl [drawing 15, reference compound]					IC50 [1, 9]: 0.0887 µM; solubility (Solubility at pH 7.4; [8]): 9.5 µg/mL (≈ 20.3 µM)
Cc1c(F)c(O)cc(C(=O)Nc2c(N3CCN(C)CC3)ccc(-n3cc(NCC(N)=O)nn3)c2F)c1Cl [Example 21, N-(3-(4-((2-amino-2-Oxoethyl)amino)-1H-1,2,3-triazol-1-group)-2-fluoro-6-(4-methylpiperazin-1-group)phenyl)-2-chloro-4-fluoro-5-hydroxyl-3-Methyl benzoyl]	< 0.08	12.7 ± 0.8	7.7 ± 0.9	10.5 ± 0.8	
Cc1c(F)c(N)cc(C(=O)Nc2cc(-n3cc(C(=O)N(C)C)nn3)ccc2N2CCN(C)CC2)c1Cl [Example 3, 1-(3-(5-Amino-2-chloro-4-fluoro-3-methylbenzoylamino)-4-(4-methylpiperazin-1-group)phenyl)-N, N-dimethyl-1H-1,2,3 triazole-4-carboxamide]		44.6 ± 1.3	22.8 ± 5.5	> 100	
Cc1c(F)c(N)cc(C(=O)Nc2cc(-n3cc(NC(=O)CCCN)nn3)ccc2N2CCN(C)CC2)c1Cl [drawing 20]					IC50 [1, 6]: 0.0067 µM; solubility (Solubility at pH 7.4; [7]): 1300 µg/mL (≈ 2400 µM)
Cc1c(F)c(N)cc(C(=O)Nc2cc(-n3ccnn3)ccc2N2CCN(C)CC2)c1Cl [drawing 12]					IC50 [1, 6]: 0.0657 µM; solubility (Solubility at pH 7.4; [7]): 30 µg/mL (≈ 67.6 µM)
Cc1c(F)c(N)cc(C(=O)Nc2cc(-n3cc(C(=O)N(C)C)nn3)ccc2N2CCN(C)CC2)c1Cl [drawing 8]					solubility (Solubility at pH 7.4; [7]): 170 µg/mL (≈ 330 µM)
Cc1c(F)c(N)cc(C(=O)Nc2cc(-n3cc(C(=O)N4CCOCC4)nn3)ccc2N2CCN(C)CC2)c1Cl [drawing 10]					solubility (Solubility at pH 7.4; [7]): 200 µg/mL (≈ 359 µM)
Cc1c(F)c(N)cc(C(=O)Nc2cc(-c3ccc(NC(=O)C(N)C(C)C)cc3)ccc2N2CCN(C)CC2)c1Cl (stereo not drawn) [DDO-2113, reference compound]					Mouse survival (female balb/c mice): all mice died after dosing for 5 days
Cc1c(F)c(N)cc(C(=O)Nc2cc(-c3ccc(NC(=O)C4CCNCC4)cc3)ccc2N2CCN(C)CC2)c1Cl [reference compound]					IC50 [1, 9]: 0.0085 µM; solubility (Solubility at pH 7.4; [8]): 125 µg/mL (≈ 216 µM)
Cc1c(F)c(N)cc(C(=O)Nc2cc(-n3cc(C(=O)N4CCN(C)CC4)nn3)ccc2N2CCN(C)CC2)c1Cl [Example 8, 5-amino-2-chloro-4-fluoro-3-ethyl-N-(2-(4-methylpiperazin-1-group)-5-(4-(methylpiperazin-1-Carbonyl)-1H-1,-1H-1,2,3-triazole-1-group) Phenyl)-carboxamide]				34.1 ± 1.2	
Cc1c(F)c(N)cc(C(=O)Nc2cc(-n3cc(N)nn3)ccc2N2CCN(C)CC2)c1Cl [drawing 14]					IC50 [1, 6]: 0.0903 µM; solubility (Solubility at pH 7.4; [7]): 110 µg/mL (≈ 240 µM)
Cc1c(F)c(N)cc(C(=O)Nc2cc(-n3cc(C(=O)NC4CCOCC4)nn3)ccc2N2CCN(C)CC2)c1Cl [Example 5, 1-(3-(5-Amino-2-chloro-4-fluoro-3-methylbenzoylamino)-4-(4-methylpiperazin-1-group)phenyl)-N-(tetrahydro-2H-pyran-4-yl)-1H-1,2,3-triazole-4-carboxamide]				27.5 ± 2.8	
Cc1c(F)c(O)cc(C(=O)Nc2c(N3CCN(C)CC3)ccc(-n3cc(NC(=O)CCN)nn3)c2C)c1Cl [Example 23]	< 0.05		17.9 ± 1.6	27.7 ± 0.3	
